Test results as given in US20250026746A1, “ENHANCERS OF PARTICULATE GUANYLYL CYCLASE RECEPTOR A” (Mayo Foundation for Medical Education and Research, priority 2021, published 2025).

Biological target: T1, human GC-A (Homo sapiens, UniProt P16066)
T1 construct: host or cells: HEK293
T1 sequence (P16066 33-1061): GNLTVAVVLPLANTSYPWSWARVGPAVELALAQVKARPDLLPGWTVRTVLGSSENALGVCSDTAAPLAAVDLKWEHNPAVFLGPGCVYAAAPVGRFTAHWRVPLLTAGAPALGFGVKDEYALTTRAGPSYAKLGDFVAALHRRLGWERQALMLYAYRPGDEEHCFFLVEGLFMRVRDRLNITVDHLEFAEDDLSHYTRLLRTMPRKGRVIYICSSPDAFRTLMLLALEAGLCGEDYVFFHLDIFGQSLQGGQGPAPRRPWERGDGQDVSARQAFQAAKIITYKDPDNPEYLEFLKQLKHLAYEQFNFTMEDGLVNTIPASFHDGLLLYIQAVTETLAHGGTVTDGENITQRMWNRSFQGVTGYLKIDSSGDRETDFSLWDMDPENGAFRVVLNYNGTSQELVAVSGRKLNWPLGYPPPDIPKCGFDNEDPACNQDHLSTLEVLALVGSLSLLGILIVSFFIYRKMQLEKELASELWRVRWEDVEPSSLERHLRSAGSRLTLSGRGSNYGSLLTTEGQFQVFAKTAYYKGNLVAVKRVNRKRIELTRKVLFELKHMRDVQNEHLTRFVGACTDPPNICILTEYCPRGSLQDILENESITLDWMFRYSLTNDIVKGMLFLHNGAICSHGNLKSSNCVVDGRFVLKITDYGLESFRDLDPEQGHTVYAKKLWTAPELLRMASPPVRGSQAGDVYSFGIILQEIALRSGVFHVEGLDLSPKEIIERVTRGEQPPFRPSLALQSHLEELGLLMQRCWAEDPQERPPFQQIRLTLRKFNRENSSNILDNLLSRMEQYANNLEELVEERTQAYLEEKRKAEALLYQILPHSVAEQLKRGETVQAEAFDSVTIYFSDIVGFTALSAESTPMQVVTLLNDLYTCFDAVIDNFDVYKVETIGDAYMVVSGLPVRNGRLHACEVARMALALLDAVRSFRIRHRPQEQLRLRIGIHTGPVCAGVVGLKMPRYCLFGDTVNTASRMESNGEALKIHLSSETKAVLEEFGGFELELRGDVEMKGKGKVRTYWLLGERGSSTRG
T1 sequence (P01160 124-151 partner limits assumed): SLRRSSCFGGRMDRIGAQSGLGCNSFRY
Experiment: EC50 and Emax cGMP determination, HTRF, human GC-A overexpressing HEK293 cells
Assay type: cell-based
Details: HEK293 GC-A cells
Description: Test compounds were evaluated for potentiation of cGMP in human GC-A overexpressing HEK293 cells (Cardiorenal Research Laboratory, Mayo Clinic). Test compounds at 10 mM DMSO stock concentration were dispensed into 384 well small volume white plates using Tecan D300e digital dispenser starting at 5 μM or 40 μM concentration and diluted 2-fold for 10-point concentration response. Wells were backfilled with DMSO such that the final concentration of DMSO in all wells was maintained at 0.3% DMSO. Atrial natriuretic peptide (ANP, Phoenix Pharmaceuticals) ANP was prepared as working stock aliquots at 5 μM in phosphate-buffered solution (PBS) with 0.1% bovine serum albumin (BSA) and diluted to […] in buffer plus Tween20 at 0.3% and added to plates to a final concentration equivalent to EC20 ANP in the cGMP assay. GC-A cells in suspension ([…]) in OptiMem media (ThermoFisher 11058-021) supplemented with 2% fetal bovine serum were plated at 1×10^6 cells/mL and assay plates were spun at 1000 rpm for 30 sec and incubated at room temperature for 30 min. GC-A-mediated activation of cGMP production was measured using cGMP CisBio detection homogenous time-resolved florescence (HTRF) competition assay using labeled-cGMP in human GC-A-overexpressing HEK293 cells. 5 μL of d-2 acceptor was dispensed into each well followed by addition of 5 μL of Anti-cGMP Eu-Cryptate antibody donor and plates were spun at 1000 rpm for 30 sec and incubated in the dark at room temperature for 1 hr. HTRF florescence was read on the ClarioStar microplate reader (BMG). A 100% response was determined from wells in the absence of compound and presence of saturating concentration of ANP (10 nM), and 0) % response was determined from wells containing an EC20 concentration of ANP determined for each new lot of ANP. Concentration-response curves for test compounds were analyzed by […] analysis using GraphPad software to determine EC50 and Emax values.

CN(C)CCN1CCC[C@H](C(=O)Nc2nc3c(F)cc(F)cc3s2)C1 [Compound 1, (S)-N-(4,6-difluorobenzo[d]thiazol-2-yl)-1-(2-(dimethylamino)ethyl) piperidine-3-carboxamide]
potency in potentiating ANP-mediated cGMP generation (comparison between forms/enantiomers): more potent
